Experimental data as given in US20130303535A1, “NOVEL BICYCLIC HETEROCYCLIC COMPOUND” (priority 2008, published 2013).
Counter-ions that a name gives are not always drawn.

Target: TTX resistant Na channel of human SNS-expressing cell (SNS) (Homo sapiens, UniProt Q9Y5Y9)
Experiment: cell-based
Settings: CHO-K1, compound concentration 12.5 μM; read-out: SNS inhibitory rate (%)

Sequence of TTX resistant Na channel of human SNS-expressing cell (SNS) (Q9Y5Y9 whole entry, looked up): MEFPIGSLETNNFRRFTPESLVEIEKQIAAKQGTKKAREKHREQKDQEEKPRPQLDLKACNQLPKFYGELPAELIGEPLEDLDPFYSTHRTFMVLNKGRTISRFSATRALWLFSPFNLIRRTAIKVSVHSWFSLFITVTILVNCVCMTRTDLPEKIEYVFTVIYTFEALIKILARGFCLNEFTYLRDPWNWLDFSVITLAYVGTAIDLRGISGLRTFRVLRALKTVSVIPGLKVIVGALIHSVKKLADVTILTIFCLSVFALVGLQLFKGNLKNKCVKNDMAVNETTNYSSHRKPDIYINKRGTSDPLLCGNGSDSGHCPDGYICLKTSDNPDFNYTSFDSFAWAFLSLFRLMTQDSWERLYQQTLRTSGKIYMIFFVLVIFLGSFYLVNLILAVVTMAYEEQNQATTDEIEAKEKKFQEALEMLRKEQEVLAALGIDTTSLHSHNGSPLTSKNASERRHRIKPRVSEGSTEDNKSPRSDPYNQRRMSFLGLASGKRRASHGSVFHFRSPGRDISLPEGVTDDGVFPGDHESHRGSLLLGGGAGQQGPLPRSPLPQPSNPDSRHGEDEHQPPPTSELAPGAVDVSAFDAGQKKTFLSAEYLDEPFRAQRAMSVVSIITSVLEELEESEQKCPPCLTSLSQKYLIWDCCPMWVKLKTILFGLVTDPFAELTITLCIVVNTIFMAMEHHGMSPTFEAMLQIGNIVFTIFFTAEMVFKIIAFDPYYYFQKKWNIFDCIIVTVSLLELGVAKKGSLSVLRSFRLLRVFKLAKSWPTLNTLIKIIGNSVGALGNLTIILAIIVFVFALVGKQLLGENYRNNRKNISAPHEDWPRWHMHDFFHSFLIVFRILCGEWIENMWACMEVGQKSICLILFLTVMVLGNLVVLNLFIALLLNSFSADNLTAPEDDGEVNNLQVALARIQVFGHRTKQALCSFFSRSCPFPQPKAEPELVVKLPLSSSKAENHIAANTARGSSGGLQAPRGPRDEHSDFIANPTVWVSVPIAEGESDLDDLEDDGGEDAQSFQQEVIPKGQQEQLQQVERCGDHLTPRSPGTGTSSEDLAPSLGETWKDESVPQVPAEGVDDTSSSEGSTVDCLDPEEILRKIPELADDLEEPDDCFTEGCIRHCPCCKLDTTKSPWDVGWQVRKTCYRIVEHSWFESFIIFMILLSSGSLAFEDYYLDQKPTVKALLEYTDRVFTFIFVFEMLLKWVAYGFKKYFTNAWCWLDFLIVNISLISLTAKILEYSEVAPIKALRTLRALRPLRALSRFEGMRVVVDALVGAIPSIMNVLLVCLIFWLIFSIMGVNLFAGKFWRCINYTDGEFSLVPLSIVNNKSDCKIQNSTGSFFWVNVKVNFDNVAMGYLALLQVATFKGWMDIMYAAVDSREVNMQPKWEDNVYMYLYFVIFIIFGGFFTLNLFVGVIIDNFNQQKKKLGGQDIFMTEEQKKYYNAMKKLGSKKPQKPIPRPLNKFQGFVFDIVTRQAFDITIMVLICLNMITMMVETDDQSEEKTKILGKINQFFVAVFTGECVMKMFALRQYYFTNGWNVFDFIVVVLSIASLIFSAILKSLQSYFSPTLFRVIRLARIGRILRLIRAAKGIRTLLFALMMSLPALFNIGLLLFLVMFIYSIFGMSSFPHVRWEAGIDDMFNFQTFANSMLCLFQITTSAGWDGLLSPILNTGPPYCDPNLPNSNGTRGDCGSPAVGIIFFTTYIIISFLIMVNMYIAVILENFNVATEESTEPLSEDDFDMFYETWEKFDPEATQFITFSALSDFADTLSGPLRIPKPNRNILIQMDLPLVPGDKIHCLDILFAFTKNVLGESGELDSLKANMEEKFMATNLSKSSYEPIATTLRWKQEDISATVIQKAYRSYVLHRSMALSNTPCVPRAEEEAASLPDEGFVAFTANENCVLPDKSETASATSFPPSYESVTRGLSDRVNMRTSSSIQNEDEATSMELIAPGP

| SMILES | inhibition at 12.5 µM |
| --- | --- |
| CCOCCn1c(CNC(C)(C)C(N)=O)nc2ccc(-c3ccc(F)cc3OC)cc21 [Example 174] | 33.4% |
| NC(=O)CNCc1nc2ccc(Oc3ccccc3)cc2n1C1CCCC1 [Example 25] | 0% |
| CCOCCn1c(CNC(C)(C)C(N)=O)nc2ccc(-c3ccc(F)cc3Cl)cc21 [Example 156] | 71.2% |
| CCOCCn1c(CN[C@@H](C)C(=O)NCCOC)nc2ccc(Oc3ccc(F)cc3)cc21 [Example 88] | 83.5% |
| Cc1ccc(Oc2ccc3nc(CN[C@@H](C)C(N)=O)n(C[C@@H]4CCCO4)c3c2)cc1 [Example 119] | 87.2% |
| CCOCCn1c(CN[C@@H](C)C(N)=O)nc2ccc(Oc3ccc(OC)cc3)cc21 [Example 75, N^2-{[1-(2-ethoxyethyl)-6-(4-methoxyphenoxy)-1H-benzimidazol-2-yl]methyl}-L-alaninamide] | 0% |
| CCOCCn1c(CNC(C)(C)C(N)=O)nc2ccc(Oc3ccccc3)cc21 [Example 39] | 48.8% |
| CCOCCn1c(CN[C@@H](C)C(N)=O)nc2ccc(Oc3ccc(Cl)cc3)cc21 [Example 27] | 78.2% |
| CCOCCn1c(CN[C@@H](C)C(N)=O)nc2cc(C(F)(F)F)c(-c3ccc(F)cc3)cc21 [Example 115, N^2-{[1-(2-ethoxyethyl)-6-(4-fluorophenyl)-5-(trifluoromethyl)-1H-benzimidazol-2-yl]methyl}-L-alaninamide] | 3.5% |
| CC(C)n1c(CNCC(N)=O)nc2ccc(Oc3ccccc3)cc21 [Example 10] | 16.3% |
| CCOCCn1c(CN[C@@H](C)C(N)=O)nc2cc(F)c(-c3ccc(F)c(F)c3)cc21 [Example 183] | 72.3% |
| CCOCCn1c(CN[C@@H](C)C(N)=O)nc2ccc(-c3ccc(F)cc3Cl)cc21 [Example 155] | 86.1% |
| CCOCCn1c(CN[C@@H](C)C(N)=O)nc2ccc(-c3ccc(F)cc3OC)cc21 [Example 172] | 50.9% |
| CCOCCn1c(CN[C@@H](C)C(N)=O)nc2cc(F)c(-c3ccccc3)cc21 [Example 185] | 64.6% |
| CCOCCn1c(CNC(C)(C)C(N)=O)nc2ccc(-c3ccc(C)c(F)c3)cc21 [Example 170] | 14.2% |
| CCOCCn1c(CNC(C)(C)C(N)=O)nc2ccc(Oc3ccccc3Cl)cc21 [Example 32] | 91.2% |
| CC(C)(NCc1nc2ccc(Oc3ccc(F)cc3)cc2n1C1CCOCC1)C(N)=O [Example 8] | 90.4% |
| NC(=O)CNCc1nc2ccc(Oc3ccc(F)cc3)cc2n1C1CCC1 [Example 18] | 14.2% |
| CCOCCn1c(CN[C@@H](C)C(N)=O)nc2cc(F)c(-c3ccc(F)c(C)c3)cc21 [Example 188] | 87% |
| CCOCCn1c(CN[C@@H](C)C(N)=O)nc2ccc(-c3ccccc3Cl)cc21 [Example 71] | 73.7% |
| CCOCCn1c(CN[C@@H](C)C(N)=O)nc2cc(F)c(-c3ccc(F)cc3)cc21 [Example 109, N^2-{[1-(2-ethoxyethyl)-5-fluoro-6-(4-fluorophenyl)-1H-benzimidazol-2-yl]methyl}-L-alaninamide] | 89.3% |
| COCCn1c(CN[C@@H](C)C(N)=O)nc2ccc(Oc3ccc(F)cc3)cc21 [Example 60] | 75.7% |

| SMILES | inhibition at 12.5 µM |
| --- | --- |
| C[C@H](NCc1nc2ccc(Oc3ccc(F)cc3)cc2n1C1CCOCC1)C(N)=O [Example 6] | 77.8% |
| NC(=O)CNCc1nc2ccc(Oc3ccccc3)cc2n1CC1CCOCC1 [Example 14] | 16.4% |
| CC(=O)N1CCC(n2c(CN[C@@H](C)C(N)=O)nc3ccc(Oc4ccc(F)cc4)cc32)CC1 [Example 85, N^2-{[1-(1-acetylpiperidin-4-yl)-6-(4-fluorophenoxy)-1H-benzimidazol-2-yl]methyl}-L-alaninamide] | 24.9% |
| NC(=O)[C@@H]1CCCN1Cc1nc2ccc(Oc3ccccc3)cc2n1C[C@H]1CCCO1 [Example 19] | 100% |
| CCOCCn1c(CNC(C)(C)C(N)=O)nc2ccc(-c3ccc(C)cc3C)cc21 [Example 160] | 97% |
| NC(=O)[C@@H]1CCCN1Cc1nc2ccc(Oc3ccccc3)cc2n1CC1CCOCC1 [Example 16] | 96.2% |
| CCOCCn1c(CNCC(N)=O)nc2ccc(Oc3ccccc3)cc21 [Example 2, N^2-{[1-(2-ethoxyethyl)-6-phenoxy-1H-benzimidazol-2-yl]methyl}glycinamide] | 8.4% |
| CCOCCn1c(CN[C@@H](C)C(N)=O)nc2cc(F)c(Oc3ccc(F)cc3)cc21 [Example 81, N^2-{[1-(2-ethoxyethyl)-5-fluoro-6-(4-fluorophenoxy)-1H-benzimidazol-2-yl]methyl}-L-alaninamide] | 69.1% |
| C[C@@H](NCc1nc2ccc(Oc3ccccc3)cc2n1C1CCC1)C(N)=O [Example 34] | 6.7% |
| C[C@H](NCc1nc2ccc(Oc3ccc(F)cc3F)cc2n1C[C@@H]1CCCO1)C(N)=O [Example 121] | 94.3% |
| CCOCCn1c(CN[C@@H](C)C(N)=O)nc2ccc(-c3ccc(C)cc3C)cc21 [Example 159] | 96.1% |
| COCCCn1c(CNCC(N)=O)nc2ccc(Oc3ccccc3)cc21 [Example 23] | 0.8% |
| C[C@H](NCc1nc2ccc(Oc3ccc(OC(F)(F)F)cc3)cc2n1C1CCOCC1)C(N)=O [Example 130] | 42.1% |
| C[C@H](NCc1nc2ccc(Oc3ccc(F)cc3)cc2n1CC(C)(C)O)C(N)=O [Example 50] | 86.8% |
| CCOCCn1c(CN[C@@H](C)C(N)=O)nc2cc(Cl)c(-c3ccc(F)c(F)c3)cc21 [Example 180] | 4.5% |
| CCOCCn1c(CN[C@@H](C)C(N)=O)nc2ccc(-c3ccc(F)cc3C)cc21 [Example 157] | 89.9% |
| Cc1ccc(Oc2ccc3nc(CNC(C)(C)C(N)=O)n(C4CCOCC4)c3c2)cc1 [Example 140] | 97.5% |
| CCOCCn1c(CN[C@@H](C)C(N)=O)nc2ccc(-c3ccc(F)cc3F)cc21 [Example 147] | 23.5% |
| CCOCCn1c(CNC(C)(C)C(N)=O)nc2ccc(-c3ccc(F)cc3C)cc21 [Example 158] | 86.1% |
| CCOCCn1c(CN[C@H](C(N)=O)C(C)C)nc2ccc(-c3ccc(F)cc3)cc21 [Example 151] | 26.6% |
| C[C@H](NCc1nc2ccc(Oc3ccc(F)cc3)cc2n1C1CCC1)C(N)=O [Example 17] | 89.3% |
| CCOCCn1c(CN[C@@H](C)C(N)=O)nc2ccc(-c3ccc(C)cc3)nc21 [Example 209, N^2-{[3-(2-ethoxyethyl)-5-(4-methylphenyl)-3H-imidazo[4,5-b]pyridin-2-yl]methyl}-L-alaninamide hydrochloride] | 6.5% |

| SMILES | inhibition at 12.5 µM |
| --- | --- |
| CCOCCn1c(CN[C@@H](C)C(N)=O)nc2ccc(-c3ccc(F)c(C)c3)cc21 [Example 167] | 82.8% |
| COCCCn1c(CNC(C)(C)C(N)=O)nc2ccc(Oc3ccc(C)cc3)cc21 [Example 142] | 47.9% |
| CCOCCn1c(CN[C@@H](C)C(N)=O)nc2ccc(-c3ccc(F)c(OC)c3)cc21 [Example 173] | 27.1% |
| CCOCCn1c(CN(C)CC(N)=O)nc2ccc(Oc3ccccc3)cc21 [Example 40] | 95.8% |
| CCOCCn1c(CN[C@@H](C)C(N)=O)nc2ccc(Oc3ccc(C(C)(C)C)cc3)cc21 [Example 74, N^2-{[6-(4-tert-butylphenoxy)-1-(2-ethoxyethyl)-1H-benzimidazol-2-yl]methyl}-L-alaninamide] | 58.2% |
| CC(C)(NCc1nc2ccc(Oc3ccccc3)cc2n1C1CCC1)C(N)=O [Example 33] | 32.9% |
| CCOCCn1c(CNC(C)(C)C(N)=O)nc2ccc(-c3ccc(F)cc3)cc21 [Example 149] | 30.6% |
| CC(C)OCCn1c(CN[C@@H](C)C(N)=O)nc2ccc(Oc3ccc(F)cc3)cc21 [Example 62] | 93.8% |
| C[C@H](NCc1nc2ccc(Oc3ccc(F)cc3)cc2n1C[C@@H]1CCCO1)C(N)=O [Example 56] | 82.2% |
| CCOCCn1c(CNC(C)(C)C(N)=O)nc2ccc(Oc3ccc(F)cc3)cc21 [Example 5, N^2-{[1-(2-ethoxyethyl)-6-(4-fluorophenoxy)-1H-benzimidazol-2-yl]methyl}-2-methylalaninamide] | 59.3% |
| C[C@H](NCc1nc2ccc(Oc3ccc(F)cc3)cc2n1C[C@H]1CCCO1)C(N)=O [Example 51] | 90.5% |
| COCCCn1c(CN[C@@H](C)C(N)=O)nc2ccc(Oc3ccc(C)cc3)cc21 [Example 126] | 56.9% |
| CCOCCn1c(CNCC(N)=O)nc2ccc(-c3ccccc3)cc21 [Example 66, N^2-{[1-(2-ethoxyethyl)-6-phenyl-1H-benzimidazol-2-yl]methyl}glycinamide] | 16.8% |
| C[C@H](NCc1nc2cc(F)c(-c3ccc(F)cc3)cc2n1C1CCOCC1)C(N)=O [Example 116, N^2-{[5-fluoro-6-(4-fluorophenyl)-1-(tetrahydro-2H-pyran-4-yl)-1H-benzimidazol-2-yl]methyl}-L-alaninamide] | 33.2% |
| CC(C)(NCc1nc2ccc(Oc3ccc(F)cc3)cc2n1C1CC1)C(N)=O [Example 136] | 28.7% |
| NC(=O)[C@@H]1CCCN1Cc1nc2ccc(Oc3ccccc3)cc2n1C[C@@H]1CCCO1 [Example 21] | 100% |
| CCOCCn1c(CN2CCC[C@H]2C(N)=O)nc2ccc(Oc3ccc(F)cc3)cc21 [Example 15] | 95.7% |
| CCOCCn1c(CN[C@@H](C)C(=O)N2CCNC(=O)C2)nc2ccc(Oc3ccc(F)cc3)cc21 [Example 106] | 86.4% |
| C[C@H](NCc1nc2ccc(Oc3ccc(OC(F)(F)F)cc3)cc2n1CCCO)C(N)=O [Example 133] | 91.7% |
| C[C@H](NCc1nc2ccc(Oc3ccccc3)cc2n1C1CCCC1)C(N)=O [Example 26] | 26.6% |
| CCOCCn1c(CN[C@@H](C)C(=O)NCCN2CCOCC2)nc2ccc(Oc3ccc(F)cc3)cc21 [Example 89] | 83% |

Same assay, conditions: compound concentration 12.5 μM

| SMILES | SNS inhibitory rate (%) |
| --- | --- |
| CCOCCn1c(CN[C@@H](C)C(N)=O)nc2cc(Cl)c(-c3ccc(F)cc3)cc21 [Example 176] | 68.8% |
